Earlier results, collected in patent publication US5929038A, “Pharmaceutical preparations which inhibit hepatitis B virus (HBV) replication” (Choongwae Pharmaceutical Co., Ltd., priority 1992, dated 1999).

Columns and labels:
[1] = tested on: beagle dogs intoxicated by toxic mushroom extracts; conditions: cited from earlier work
[2] = tested on: toxic Amanita mushrooms' poisoning; conditions: in vivo; cited from earlier work

For `OCC1=CC(O)C2C=COC(O[C@@H]3O[C@H](CO)[C@@H](O)[C@H](O)[C@H]3O)C12` (stereo partly drawn) [Aucubin, 1,4,5, 7α-tetrahydro-5-hydroxy-17-(hydroxymethyl)cyclopenta[c]pyran-1-yl-β-D-glucopyranose], the antidotal activity [1] is listed as “potent antidotal activity” and the Detoxification activity [2] is listed as “detoxifies toxic Amanita mushrooms' poisoning”.
